According to PubChem BioAssay (NCI):
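Dose response: 5 concentrations. Exposure: 48 h. Format: 96-well plates. Endpoint: linear interpolation; highest concentration if not reached. The concentration for full growth arrest is given as TGI.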

Key:
Assay in all cases: growth of human tumour cells (NCI), 48 h
[1] = system: A498 renal
[2] = system: COLO 205 colon
[3] = system: HL-60(TB) leukemia
[4] = system: LOX IMVI melanoma
[5] = system: M14 melanoma
[6] = system: MALME-3M melanoma
[7] = system: OVCAR-8 ovarian
[8] = system: SK-OV-3 ovarian
[9] = system: UACC-257 melanoma
[10] = system: UO-31 renal

| Compound | TGI [1] [µM] | TGI [2] [µM] | TGI [3] [µM] | TGI [4] [µM] | TGI [5] [µM] | TGI [6] [µM] | TGI [7] [µM] | TGI [8] [µM] | TGI [9] [µM] | TGI [10] [µM] |
| --- | --- | --- | --- | --- | --- | --- | --- | --- | --- | --- |
| OC(O)(C(F)(F)F)C(F)(F)F | > 100 | > 100 | > 100 | > 100 | > 100 | > 100 | > 100 | > 100 | > 100 | > 100 |
| O=C(NCc1cccnc1)C(=O)NCc1cccnc1 | > 100 | > 100 | 64.7 | > 100 | > 100 | > 100 | > 100 | > 100 | > 100 | > 100 |
| O=c1/c(=C/c2ccc(-c3ccc(Cl)cc3Cl)o2)sc2n1[C@@H](c1ccc3c(c1)OCO3)C=C(c1cc(F)c(Cl)cc1Cl)N=2 | 6 | > 100 | > 100 | > 100 | > 100 | > 100 | > 100 | 62.1 | 71.1 | 95.1 |
| COC(=O)C[C@H](CCSC)NC(=O)C[C@H](CCSC)NC(=O)C[C@H](CCSC)NC(=O)OC(C)(C)C | 46.4 | > 100 | > 100 | > 100 | > 100 | > 100 | > 100 | 40 | > 100 | > 100 |
| COc1ccc(C2NC(=O)Nc3c2c(=O)oc2c3ccc3ccccc32)cc1 (stereo not given) | > 100 | > 100 | > 100 | > 100 | > 100 | > 100 | > 100 | > 100 | > 100 | > 100 |
| CCCCCCCCC[n+]1cccc(C2C(C(=O)OCC)=C(C)NC(C)=C2C(=O)OCC)c1 | 38.6 | 8.06 | 6.25 | 9.34 | 7.32 | 4.67 | 11.2 | 26.5 | 7.73 | 31.6 |
| Cn1c(=O)c2[nH]c(CCC(=O)O)nc2n(C)c1=O | > 100 | > 100 | > 100 | > 100 | > 100 | > 100 | > 100 | > 100 | > 100 | > 100 |
| c1ccc(-c2[nH]c(-c3ccccc3)c(-c3cnccn3)c2-c2cnccn2)cc1 | > 100 | > 100 | > 100 | > 100 | > 100 | > 100 | > 100 | > 100 | > 100 | > 100 |
| COC(=O)C(C(=O)OC)C1CC(=O)c2c(Br)sc(Br)c21 (stereo not given) | > 100 | 28.5 | 49.9 | 26.7 | 40.8 | 40 | 37.8 | 44 | 76.8 | 29.5 |
| COC1=CC(=O)c2c(cc(COP(=O)(N(C)CCBr)N(C)CCBr)n2C)C1=O | 6.12 | 2.56 | > 100 | 3.31 | 2.56 | 2.95 | 3.98 | 8.3 | 12.9 | 2.52 |
| O=C(O)CCCc1ccc2c(c1)CC1(C2)Cc2ccc(CCCC(=O)O)cc2C1 | > 100 | > 100 | > 100 | > 100 | > 100 | > 100 | > 100 | > 100 | > 100 | > 100 |
| CC(=O)O[C@H]1C(=O)[C@@]2(C)C(C(OC(=O)c3ccccc3)[C@]3(O)CC(OC(=O)C(O)C(NC(=O)c4ccccc4)c4ccc(C)cc4)C(C)=C1C3(C)C)[C@]1(OC(C)=O)CO[C@@H]1C[C@@H]2O (stereo not given in full) | > 25 | 0.407 | 2.55 | 6.75 | 0.105 | 10.4 | 1.01 | 0.0962 | > 25 | 11.5 |
| c1ccc2c(c1)c1c3n2-c2cc(on2)C3CCC1 (stereo not given) | > 100 | > 100 | > 100 | > 100 | > 100 | > 100 | > 100 | > 100 | > 100 | > 100 |
| Cc1nn(-c2ccccn2)c2c1C(SC#N)=C(C=O)CC2 | 5.57 | 22.2 | 16 | 29.1 | 31.7 | 36.2 | 30.8 | 61.5 | 17.8 | 29.1 |
| O=c1oc2ccccc2c(O)c1Cc1cccc(Cc2c(O)c3ccccc3oc2=O)c1 | > 100 | > 100 | > 100 | > 100 | > 100 | > 100 | > 100 | > 100 | > 100 | > 100 |
| C=C(C(=O)OC)[C@H]1CC/C(C)=C/CC/C(C)=C/CC[C@@]2(C)O[C@@H]2C1 | 62.2 | 28.6 | 30.9 | 28.8 | 46.5 | 63.3 | 31.4 | > 100 | 62.3 | 55 |
| CCOC(=O)C1=C(C)N(c2ccc(C)cc2)C2(O)C=CC(=O)C3=C(O)c4ccccc4C(=O)C312 (stereo not given) | 67.9 | > 100 | 0.039 | 96.8 | > 100 | 43.1 | > 100 | > 100 | 57.9 | 40 |
| O=S(=O)(O)c1ccc(Nc2ccnc3cc(Cl)ccc23)cc1 | > 100 | > 100 | > 100 | > 100 | > 100 | > 100 | > 100 | > 100 | > 100 | > 100 |
